The subject of the assay is HUVEC. The assay is described as follows: HUVEC proliferation (normalized cell number C72/C0) on SAM array spots presenting GRGDSP. It is filed as cell-based, human. The following applies: HUVECs, 72 hours. How it is done: For cell assays on SAM arrays, HUVECs or hMSCs were removed from plastic culture plates using a 0.05% trypsin solution, resuspended in media, and seeded onto SAM arrays in sterile polystyrene Petri dishes. After allowing cells to attach for ˜1 hour in a humidified incubator at 37° C. and 5% CO2, arrays were dipped in warm media to remove loosely attached cells and then transferred to a rectangular multidish (Thermo Scientific/Nunc, Rochester, N.Y.) with warm media and imaged ˜4 hours later serving as “0 hr.” For the initial time point and subsequent time-lapse imaging, arrays were placed on an incubated stage and each array spot was imaged every 15 minutes for 72 hours. […]
Relative cell attachment at 0 hrs was quantified by counting the number of attached cells per spot and normalizing cell numbers to maximal attachment conditions. Normalized cell number was calculated by dividing the number of cells per spot at 72 hours (C72) to the cell number observed on the same spot at 0 hrs (C0). Relative proliferation was determined by dividing normalized cell numbers at 72 hours by the maximum average normalized cell number observed across GRGDSP density conditions. Similarly, relative spreading was determined by dividing projected cell areas to the maximum average projected cell area observed across GRGDSP density conditions. […]

Take GRGDSP: the “maximum normalized cell number (C72/C0)” value (across GRGDSP densities) is on record as 1.6. Also, for the setting “below 0.06% GRGDSP”, the proliferation entry was “no proliferation”.

The values above are taken from patent US8642516B2, “Chemically-defined arrays for screening cell-substrate interactions” (Wisconsin Alumni Research Foundation, priority 2012, dated 2014).
